# Measurements as given in article PMC5218480 (PLoS ONE, 2017).
# Tested on: MV-4-11 cells
# Assay: Gene expression microarray analysis (Affymetrix PrimeView) and GSEA
# Assay type: cell-based, human
# Design: RFU PODN (11730768_x_at) / Fold change /veh PODN (11730768_x_at) / RFU LINC00158 (11744669_a_at) / Fold change /veh LINC00158 (11744669_a_at) / RFU DUSP10 (11751237_a_at) / Fold change /veh DUSP10 (11751237_a_at) / RFU ID3 (11757404_x_at) / Fold change /veh ID3 (11757404_x_at) / RFU PLEKHG5 (11737974_s_at) / Fold change /veh PLEKHG5 (11737974_s_at) / RFU LRRC4B (11730491_at) / Fold change /veh LRRC4B (11730491_at) / RFU GIMAP4 (11747438_a_at) / Fold change /veh GIMAP4 (11747438_a_at) / RFU KRT8 (11758183_x_at) / Fold change /veh KRT8 (11758183_x_at) / RFU CNN1 (11734310_a_at) / Fold change /veh CNN1 (11734310_a_at) / RFU VPS37D (11726825_at) / Fold change /veh VPS37D (11726825_at) / RFU C10orf10 (11716522_x_at) / Fold change /veh C10orf10 (11716522_x_at) / RFU KIR2DL2 /// KIR2DL4 /// KIR2DL5A /// KIR2DL5B /// KIR2DS1 /// KIR2DS2 /// KIR2DS3 /// KIR2DS4 /// KIR3DL3 /// KIR3DL3 /// KIR3DS1 (11738374_at) / Fold change /veh KIR2DL2 /// KIR2DL4 /// KIR2DL5A /// KIR2DL5B /// KIR2DS1 /// KIR2DS2 /// KIR2DS3 /// KIR2DS4 /// KIR3DL3 /// KIR3DL3 /// KIR3DS1 (11738374_at) / RFU C1QL1 (11718748_at) / Fold change /veh C1QL1 (11718748_at) / RFU TMPRSS4 (11747572_a_at) / Fold change /veh TMPRSS4 (11747572_a_at) / RFU HAMP (11756126_x_at) / Fold change /veh HAMP (11756126_x_at) / RFU RNFT2 (11725882_a_at) / Fold change /veh RNFT2 (11725882_a_at) / RFU NR4A2 (11747474_a_at) / Fold change /veh NR4A2 (11747474_a_at) / RFU ABCC12 (11746883_a_at) / Fold change /veh ABCC12 (11746883_a_at) / RFU TMEM136 (11760407_x_at) / Fold change /veh TMEM136 (11760407_x_at) / RFU CLDN22 /// WWC2 (11732394_at) / Fold change /veh CLDN22 /// WWC2 (11732394_at) / RFU HLA-DPB1 (11760878_x_at) / Fold change /veh HLA-DPB1 (11760878_x_at) / RFU SPINT1 (11716480_a_at) / Fold change /veh SPINT1 (11716480_a_at) / RFU GAP43 (11754022_s_at) / Fold change /veh GAP43 (11754022_s_at) / RFU A4GNT (11735810_at) / Fold change /veh A4GNT (11735810_at) / RFU PRB3 (11715151_x_at) / Fold change /veh PRB3 (11715151_x_at) / RFU TUBB4B (11761932_at) / Fold change /veh TUBB4B (11761932_at) / RFU CAPN14 (11732068_a_at) / Fold change /veh CAPN14 (11732068_a_at) / RFU TMCC2 (11721928_a_at) / Fold change /veh TMCC2 (11721928_a_at) / RFU IRGQ (11745062_a_at) / Fold change /veh IRGQ (11745062_a_at) / RFU FAM174B (11720279_a_at) / Fold change /veh FAM174B (11720279_a_at) / RFU TMPRSS4 (11748680_a_at) / Fold change /veh TMPRSS4 (11748680_a_at) / RFU FAM212B (11763350_a_at) / Fold change /veh FAM212B (11763350_a_at) / RFU PLEKHG5 (11743358_a_at) / Fold change /veh PLEKHG5 (11743358_a_at) / RFU ZSCAN30 (11745921_a_at) / Fold change /veh ZSCAN30 (11745921_a_at) / RFU CMKLR1 (11741424_a_at) / Fold change /veh CMKLR1 (11741424_a_at) / RFU LOC101060620 /// MAPK8IP1 (11723275_at) / Fold change /veh LOC101060620 /// MAPK8IP1 (11723275_at) / RFU SPTSSB (11747773_x_at) / Fold change /veh SPTSSB (11747773_x_at) / RFU PRSS12 (11739890_at) / Fold change /veh PRSS12 (11739890_at) / RFU BIN1 (11741810_x_at) / Fold change /veh BIN1 (11741810_x_at) / RFU WNT11 (11732464_a_at) / Fold change /veh WNT11 (11732464_a_at) / RFU C10orf10 (11716521_a_at) / Fold change /veh C10orf10 (11716521_a_at) / RFU C5orf56 (11738089_at) / Fold change /veh C5orf56 (11738089_at) / RFU CYB561 (11721691_x_at) / Fold change /veh CYB561 (11721691_x_at) / RFU ANKRD19P (11752326_a_at) / Fold change /veh ANKRD19P (11752326_a_at) / RFU OR2T12 /// OR2T33 /// OR2T8 (11738714_s_at) / Fold change /veh OR2T12 /// OR2T33 /// OR2T8 (11738714_s_at) / RFU VCAN (11748164_a_at) / Fold change /veh VCAN (11748164_a_at) / RFU JSRP1 (11732532_at) / Fold change /veh JSRP1 (11732532_at) / RFU KRTAP10-11 (11738290_x_at) / Fold change /veh KRTAP10-11 (11738290_x_at) / RFU MYO3A (11730013_a_at) / Fold change /veh MYO3A (11730013_a_at) / RFU EBF3 (11725865_a_at) / Fold change /veh EBF3 (11725865_a_at) / RFU CAMK2N1 (11719241_x_at) / Fold change /veh CAMK2N1 (11719241_x_at) / RFU C5orf56 (11738088_a_at) / Fold change /veh C5orf56 (11738088_a_at) / RFU OLFML3 (11715873_a_at) / Fold change /veh OLFML3 (11715873_a_at) / RFU LOC100653217 /// NTM (11731650_a_at) / Fold change /veh LOC100653217 /// NTM (11731650_a_at) / RFU MAPK11 (11762145_a_at) / Fold change /veh MAPK11 (11762145_a_at) / RFU FIZ1 (11724087_x_at) / Fold change /veh FIZ1 (11724087_x_at) / RFU OASL (11726364_x_at) / Fold change /veh OASL (11726364_x_at) / RFU SOX15 (11748057_x_at) / Fold change /veh SOX15 (11748057_x_at) / RFU CD79A (11719716_a_at) / Fold change /veh CD79A (11719716_a_at) / RFU HIST1H1D (11736915_at) / Fold change /veh HIST1H1D (11736915_at) / RFU CASKIN2 (11723855_a_at) / Fold change /veh CASKIN2 (11723855_a_at) / RFU LOC730098 (11760151_x_at) / Fold change /veh LOC730098 (11760151_x_at) / RFU OR4N2 (11742367_at) / Fold change /veh OR4N2 (11742367_at) / RFU PRRT2 (11749266_a_at) / Fold change /veh PRRT2 (11749266_a_at) / RFU SNX32 (11753110_a_at) / Fold change /veh SNX32 (11753110_a_at) / RFU CDHR5 (11726645_a_at) / Fold change /veh CDHR5 (11726645_a_at) / RFU RCAN1 (11760418_a_at) / Fold change /veh RCAN1 (11760418_a_at) / RFU FAM167A (11723789_a_at) / Fold change /veh FAM167A (11723789_a_at) / RFU FAM26E (11764081_at) / Fold change /veh FAM26E (11764081_at) / RFU ISYNA1 (11749810_s_at) / Fold change /veh ISYNA1 (11749810_s_at) / RFU ACY1 (11761880_at) / Fold change /veh ACY1 (11761880_at) / RFU 11764098_at / Fold change /veh 11764098_at / RFU SAMD14 (11745864_x_at) / Fold change /veh SAMD14 (11745864_x_at) / RFU NPB (11741838_a_at) / Fold change /veh NPB (11741838_a_at) / RFU TMPRSS6 (11731388_a_at) / Fold change /veh TMPRSS6 (11731388_a_at) / RFU KRTAP10-2 (11738614_at) / Fold change /veh KRTAP10-2 (11738614_at) / RFU ARHGAP8 /// PRR5-ARHGAP8 (11727945_x_at) / Fold change /veh ARHGAP8 /// PRR5-ARHGAP8 (11727945_x_at) / RFU KRTAP5-7 /// NADSYN1 (11734609_at) / Fold change /veh KRTAP5-7 /// NADSYN1 (11734609_at) / RFU RASL12 (11751679_a_at) / Fold change /veh RASL12 (11751679_a_at) / RFU CDKN2B (11736163_a_at) / Fold change /veh CDKN2B (11736163_a_at) / RFU PRF1 (11729649_at) / Fold change /veh PRF1 (11729649_at) / RFU, ZNF638 /// ZNF638-IT1 / Fold change vs veh, ZNF638 /// ZNF638-IT1 / RFU, PANK3 / Fold change vs veh, PANK3 / RFU, SH3YL1 / Fold change vs veh, SH3YL1 / RFU, ZEB2 / Fold change vs veh, ZEB2 / RFU, NRIP1 / Fold change vs veh, NRIP1 / RFU, PTTG1IP / Fold change vs veh, PTTG1IP / RFU, CAPN2 / Fold change vs veh, CAPN2 / RFU, MED14 / Fold change vs veh, MED14 / RFU, SNORA58 / Fold change vs veh, SNORA58 / RFU, C1orf63 / Fold change vs veh, C1orf63 / RFU, LRRFIP1 / Fold change vs veh, LRRFIP1 / RFU, NDUFAF7 / Fold change vs veh, NDUFAF7 / RFU, SLC12A2 / Fold change vs veh, SLC12A2 / RFU, IBTK / Fold change vs veh, IBTK / RFU, ESF1 / Fold change vs veh, ESF1 / Fold change vs veh, TMEM50B / RFU, TAOK1 / Fold change vs veh, TAOK1 / RFU, ACBD3 / Fold change vs veh, ACBD3 / RFU, TMA16 / Fold change vs veh, TMA16 / RFU, RWDD3 / Fold change vs veh, RWDD3 / RFU, BCAT1 / Fold change vs veh, BCAT1 / RFU, EDEM3 / Fold change vs veh, EDEM3 / RFU, TMEM33 / Fold change vs veh, TMEM33 / RFU, WDR75 / Fold change vs veh, WDR75 / RFU, AHCTF1 / Fold change vs veh, AHCTF1 / RFU, TFRC / Fold change vs veh, TFRC / RFU, ZDHHC17 / Fold change vs veh, ZDHHC17 / RFU, NOM1 / Fold change vs veh, NOM1 / RFU, ARL8B / Fold change vs veh, ARL8B / RFU, ZBTB11 / Fold change vs veh, ZBTB11 / RFU, TAMM41 / Fold change vs veh, TAMM41 / RFU, KIAA1704 /// LOC100996395 / Fold change vs veh, KIAA1704 /// LOC100996395 / RFU, ING1 / Fold change vs veh, ING1 / RFU, TRMT61B / Fold change vs veh, TRMT61B / RFU, FUBP3 / Fold change vs veh, FUBP3 / RFU, TP53 / Fold change vs veh, TP53 / RFU, TNKS2 / Fold change vs veh, TNKS2 / RFU, ZFP14 / Fold change vs veh, ZFP14 / RFU, ACTR2 / Fold change vs veh, ACTR2 / RFU, PPP3R1 / Fold change vs veh, PPP3R1 / RFU, PIK3R1 / Fold change vs veh, PIK3R1 / RFU, HNRNPA1 / Fold change vs veh, HNRNPA1 / RFU, RNF170 / Fold change vs veh, RNF170 / RFU, ZNF28 / Fold change vs veh, ZNF28 / RFU, RNGTT / Fold change vs veh, RNGTT / RFU, OGT / Fold change vs veh, OGT / RFU, BRD1 / Fold change vs veh, BRD1 / RFU, MARS / Fold change vs veh, MARS / RFU, ZNF655 / Fold change vs veh, ZNF655 / RFU, FAHD1 / Fold change vs veh, FAHD1 / RFU, BDP1 / Fold change vs veh, BDP1 / RFU, LRRCC1 / Fold change vs veh, LRRCC1 / RFU, ARID1A / Fold change vs veh, ARID1A / RFU, ZNF146 / Fold change vs veh, ZNF146 / RFU, ZNF330 / Fold change vs veh, ZNF330 / RFU, GPN3 / Fold change vs veh, GPN3 / RFU, C9orf123 / Fold change vs veh, C9orf123 / RFU, N4BP2L2 / Fold change vs veh, N4BP2L2 / RFU, ARFIP1 / Fold change vs veh, ARFIP1 / RFU, FAM179B / Fold change vs veh, FAM179B / RFU, BCL10 / Fold change vs veh, BCL10 / RFU, UHRF1BP1L / Fold change vs veh, UHRF1BP1L / RFU, BET1 / Fold change vs veh, BET1 / RFU, CNOT2 / Fold change vs veh, CNOT2 / RFU, ZNF268 / Fold change vs veh, ZNF268 / Fold change vs veh, ZNF507 / RFU, DGCR2 / Fold change vs veh, DGCR2 / RFU, WDSUB1 / Fold change vs veh, WDSUB1 / Fold change vs veh, HSP90B1 /// MIR3652 / RFU, ADSS / Fold change vs veh, ADSS / RFU, GK / Fold change vs veh, GK / RFU, ZNF148 / Fold change vs veh, ZNF148 / RFU, TAF9 / Fold change vs veh, TAF9 / RFU, SLC1A5 / Fold change vs veh, SLC1A5 / RFU, SLMO2 / Fold change vs veh, SLMO2 / RFU, ABCC4 / Fold change vs veh, ABCC4 / RFU, LOC101060439 /// RAP1B / Fold change vs veh, LOC101060439 /// RAP1B / RFU, RFX7 / Fold change vs veh, RFX7 / RFU, GTPBP10 / Fold change vs veh, GTPBP10 / RFU, CNEP1R1 / Fold change vs veh, CNEP1R1 / RFU, BIVM-ERCC5 /// ERCC5 / Fold change vs veh, BIVM-ERCC5 /// ERCC5 / RFU, ILF3 / Fold change vs veh, ILF3 / RFU 11762660_at / Fold change /veh 11762660_at / RFU VCAN (11757783_s_at) / Fold change /veh VCAN (11757783_s_at) / RFU DDX43 (11728927_at) / Fold change /veh DDX43 (11728927_at) / RFU KRT8 (11758188_x_at) / Fold change /veh KRT8 (11758188_x_at) / RFU NKD1 (11759106_at) / Fold change /veh NKD1 (11759106_at) / RFU SRD5A1 (11742802_a_at) / Fold change /veh SRD5A1 (11742802_a_at) / RFU TPSAB1 /// TPSB2 (11721975_s_at) / Fold change /veh TPSAB1 /// TPSB2 (11721975_s_at) / RFU GSTM3 (11746129_a_at) / Fold change /veh GSTM3 (11746129_a_at) / RFU IL23R (11737362_x_at) / Fold change /veh IL23R (11737362_x_at) / RFU TMEM51 (11727254_a_at) / Fold change /veh TMEM51 (11727254_a_at) / RFU PIWIL2 (11732686_x_at) / Fold change /veh PIWIL2 (11732686_x_at) / RFU ORM1 (11744905_x_at) / Fold change /veh ORM1 (11744905_x_at) / RFU CCDC152 (11743942_at) / Fold change /veh CCDC152 (11743942_at) / RFU ECM1 (11717891_a_at) / Fold change /veh ECM1 (11717891_a_at) / RFU IL23R (11748794_a_at) / Fold change /veh IL23R (11748794_a_at) / RFU TNFAIP8L3 (11732012_x_at) / Fold change /veh TNFAIP8L3 (11732012_x_at) / RFU MBOAT4 (11741988_at) / Fold change /veh MBOAT4 (11741988_at) / RFU 11764193_at / Fold change /veh 11764193_at / RFU TMEM53 (11763286_at) / Fold change /veh TMEM53 (11763286_at) / RFU MAGEB2 (11727129_at) / Fold change /veh MAGEB2 (11727129_at) / RFU TMEM200A (11744735_a_at) / Fold change /veh TMEM200A (11744735_a_at) / RFU CCDC152 (11751479_a_at) / Fold change /veh CCDC152 (11751479_a_at) / RFU FAM211A (11726209_a_at) / Fold change /veh FAM211A (11726209_a_at) / RFU RGS16 (11746705_a_at) / Fold change /veh RGS16 (11746705_a_at) / RFU VCAN (11755009_s_at) / Fold change /veh VCAN (11755009_s_at) / RFU RHOB (11743442_s_at) / Fold change /veh RHOB (11743442_s_at) / RFU RGS16 (11720943_a_at) / Fold change /veh RGS16 (11720943_a_at) / RFU RGS16 (11720944_at) / Fold change /veh RGS16 (11720944_at) / RFU, VPS4B / Fold change vs veh, VPS4B / RFU, CREB1 / Fold change vs veh, CREB1 / RFU, DNAJC13 / Fold change vs veh, DNAJC13 / RFU, GNAQ / Fold change vs veh, GNAQ / RFU, CDK5R1 / Fold change vs veh, CDK5R1 / RFU, ZRANB3 / Fold change vs veh, ZRANB3 / RFU, CUL4A / Fold change vs veh, CUL4A / RFU, CCNY / Fold change vs veh, CCNY / RFU, UFL1 / Fold change vs veh, UFL1 / RFU, COG3 / Fold change vs veh, COG3 / RFU, DIAPH2 / Fold change vs veh, DIAPH2 / RFU, SKA2 / Fold change vs veh, SKA2 / RFU, AFF3 / Fold change vs veh, AFF3 / RFU, LMF1 / Fold change vs veh, LMF1 / RFU, IPO11 / Fold change vs veh, IPO11 / RFU, DFFB / Fold change vs veh, DFFB / RFU, FOXP1 / Fold change vs veh, FOXP1 / RFU, CARD8 / Fold change vs veh, CARD8 / RFU, STRN3 / Fold change vs veh, STRN3 / RFU, ADK / Fold change vs veh, ADK / RFU, RASSF2 / Fold change vs veh, RASSF2 / RFU, WIPF1 / Fold change vs veh, WIPF1 / RFU, LARP1B / Fold change vs veh, LARP1B / RFU, RASA1 / Fold change vs veh, RASA1 / RFU, RB1 / Fold change vs veh, RB1 / RFU, PPFIA1 / Fold change vs veh, PPFIA1 / RFU, MAT2A / Fold change vs veh, MAT2A / RFU, CCT5 / Fold change vs veh, CCT5 / RFU, WDR92 / Fold change vs veh, WDR92 / RFU, CUX1 / Fold change vs veh, CUX1 / RFU, TTC7A / Fold change vs veh, TTC7A / RFU, TMEM135 / Fold change vs veh, TMEM135 / RFU, DEPTOR / Fold change vs veh, DEPTOR / RFU, CPM / Fold change vs veh, CPM / RFU, DNAJB6 / Fold change vs veh, DNAJB6 / RFU, CACNA2D3 / Fold change vs veh, CACNA2D3 / RFU, DTX4 / Fold change vs veh, DTX4 / RFU, TFCP2 / Fold change vs veh, TFCP2 / RFU, GMCL1 /// GMCL1P1 / Fold change vs veh, GMCL1 /// GMCL1P1 / RFU, AEBP2 / Fold change vs veh, AEBP2 / RFU, SNHG1 /// SNORD22 /// SNORD25 /// SNORD26 /// SNORD27 /// SNORD28 /// SNORD29 /// SNORD31 / Fold change vs veh, SNHG1 /// SNORD22 /// SNORD25 /// SNORD26 /// SNORD27 /// SNORD28 /// SNORD29 /// SNORD31 / Fold change (Aza/veh), C12orf56 (ProbeSet 11735607_a_at) / Fold change (ACY-1035/veh), C12orf56 (ProbeSet 11735607_a_at) / Fold change (Aza/veh), FGFR1OP (ProbeSet 11751329_s_at) / Fold change (ACY-1035/veh), FGFR1OP (ProbeSet 11751329_s_at) / Fold change (Aza/veh), VPS36 (ProbeSet 11739960_a_at) / Fold change (ACY-1035/veh), VPS36 (ProbeSet 11739960_a_at) / RFU SYPL1 (11715823_x_at) / Fold change /veh SYPL1 (11715823_x_at) / RFU IGFBP7 (11715501_s_at) / Fold change /veh IGFBP7 (11715501_s_at) / RFU REEP3 (11722064_at) / Fold change /veh REEP3 (11722064_at) / RFU IGLL1 (11728026_x_at) / Fold change /veh IGLL1 (11728026_x_at): dose or concentration left out as unconfirmed
# Details: MV-4-11 cells, 48 hours
smiles,measurement,value
Nc1ncn([C@@H]2O[C@H](CO)[C@@H](O)[C@H]2O)c(=O)n1 [azacitidine],Fold change /veh CDKN2B (11736163_a_at),1.08
